The target in one series is T1, human beta1-adrenoceptor (Homo sapiens, UniProt P08588).
T1 construct: expressed in transfected cells; host or cells: CHO cells
Briefly: 3H-CGP 12177 whole cell binding, beta1. The conditions noted are these: 3H-CGP12177 whole-cell binding, CHO cells expressing human beta1-adrenoceptor, given as negative Log KD; for Kd: read-out: Beta 1 Log KD (converted). Here is the method:
(§1) Selectivity of ligands for the three beta-adrenoceptors was assessed by whole-cell binding studies using ^3H-CGP12177 in CHO cells expressing the human beta1, beta2 or beta3-adrenoceptors respectively essentially as described by Baker (2005; Br. J Pharmacol: 144, 317-22). Values shown are KD values determined as described by Baker (2005). KD represents the concentration of compound required to occupy 50% of the receptors in cells or tissues.
(§2) The selectivity of a ligand is given by the ratio of beta-1 to beta-2 KD. Accordingly a difference of one in the logarithmic values thereof represents a 10-fold selectivity, a difference of 2 represents 100-fold selectivity and a difference of 3 represents 1000-fold selectivity etc.

For another series, the target named is T2, human beta2-adrenoceptor (Homo sapiens, UniProt P07550).
T2 construct: expressed in transfected cells; host or cells: CHO cells
Briefly: 3H-CGP 12177 whole cell binding, beta2. The conditions noted are these: 3H-CGP12177 whole-cell binding, CHO cells expressing human beta2-adrenoceptor, given as negative Log KD; for Kd: read-out: Beta 2 Log KD (converted). Here is the method:
as §1, §2

In general, Kd refers to the constant that tells how readily two partners part at equilibrium. The term melting point denotes the temperature of the solid-liquid transition.

T1 sequence (P08588 whole entry): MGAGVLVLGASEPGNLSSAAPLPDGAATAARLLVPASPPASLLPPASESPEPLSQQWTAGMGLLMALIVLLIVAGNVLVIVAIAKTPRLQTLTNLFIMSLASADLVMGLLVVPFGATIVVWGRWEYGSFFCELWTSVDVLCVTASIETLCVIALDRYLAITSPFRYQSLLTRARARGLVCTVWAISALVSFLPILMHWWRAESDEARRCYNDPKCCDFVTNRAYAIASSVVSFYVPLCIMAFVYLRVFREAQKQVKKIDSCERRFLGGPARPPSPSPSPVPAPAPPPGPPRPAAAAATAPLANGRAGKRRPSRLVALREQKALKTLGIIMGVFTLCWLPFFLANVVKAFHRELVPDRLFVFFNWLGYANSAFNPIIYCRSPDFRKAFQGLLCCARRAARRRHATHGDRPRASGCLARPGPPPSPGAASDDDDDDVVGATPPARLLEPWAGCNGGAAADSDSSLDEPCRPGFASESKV

Compound `Cc1ccc2cc(C(O)CNCCNC(=O)Nc3ccc(O)cc3)oc2c1` (stereo not shown) [Example 63c] came in with a melting point of 152.5 °C. Moreover, the Kd at human beta1-adrenoceptor is 46.8 nM. Also, the dissociation constant (Kd) on human beta2-adrenoceptor is 525 nM.
For `COc1ccc2oc(C(O)CNCCNC(=O)Nc3ccc(O)cc3)cc2c1` (stereo not shown) [Example 63d] the same measures were 151 °C, 224 nM and 3160 nM.
Regarding `O=C(NCCNCC(O)c1cc2cc(OCCOC3CCCC3)ccc2o1)Nc1ccc(O)cc1` (stereo not shown) [Example 63b, 1-(2-(2-(5-(2-(cyclopentyloxy)ethoxy)benzofuran-2-yl)-2-hydroxyethylamino)ethyl)-3-(4-hydroxyphenyl)urea], the Kd is 155 nM on human beta1-adrenoceptor and 44700 nM on human beta2-adrenoceptor.
`O=C(NCCNCC(O)COc1ccc2oc(=O)ccc2c1)Nc1cccc(Cl)c1` (stereo not shown) [Example 4c, 1-(3-chlorophenyl)-3-(2-(2-hydroxy-3-(2-oxo-2H-chromen-6-yloxy)propylamino)ethyl)urea] showed a melting point of 160 °C. The Kd at human beta1-adrenoceptor is 355 nM. For the same compound, on human beta2-adrenoceptor, the dissociation constant (Kd) is 9330 nM.
In the case of `O=C(NCCNCC(O)COc1ccc2c(c1)OC(c1ccccc1)CC2=O)Nc1cccc(Cl)c1` (stereo not shown) [Example 4a, 1-(3-chlorophenyl)-3-(2-(2-hydroxy-3-(4-oxo-2-phenylchroman-7-yloxy)propylamino)ethyl)urea], the results for the dissociation constant (Kd) at human beta1-adrenoceptor and at human beta2-adrenoceptor were 407 nM and 3090 nM, respectively.
Regarding “1-(2-(3-(3-(Ethoxymethyl)-2,3-dihydrobenzo[b][1,4]dioxin-6-yloxy)-2-hydroxypropylamino)ethyl)-3-(4-hydroxyphenyl)urea and 1-(2-(3-(2-(ethoxymethyl)-2,3-dihydrobenzo[b][1,4]dioxin-6-yloxyl-2-hydroxypropylamino)ethyl)-3-(4-hydroxyphenyl)urea [Example 76]”, the “Beta 1 Log KD” value at human beta1-adrenoceptor was −6.84. Moreover, the “Beta 2 Log KD” value at human beta2-adrenoceptor was −4.69.
For the compound `NC(=O)c1cc2cc(OCC(O)CNCCNC(=O)Nc3cccc(Cl)c3)ccc2o1` (stereo not shown) [Example 24b, 5-(3-(2-(3-(3-chlorophenyl)ureido)ethylamino)-2-hydropropoxy)benzofuran-2-carboxamide], the Kd at human beta1-adrenoceptor was 501 nM; on human beta2-adrenoceptor, 6460 nM.
On to `O=C(NCCNCC(O)C1COc2ccccc2O1)Nc1cccc(Cl)c1` (stereo not shown) [Example 46a, 1-(3-chlorophenyl)-3-(2-(2-(2,3-dihydrobenzo[b][1,4]dioxin-2-yl)-2-hydroxyethylamino)ethyl)urea], for which the melting point was determined as 141 °C. Further, at human beta1-adrenoceptor, the Kd was 3.98 nM. Moreover, on human beta2-adrenoceptor, the Kd is 57.5 nM.
Consider `CCOCC1Cc2cc(OCC(O)CNCCNC(=O)Nc3ccc(O)cc3)ccc2O1` (stereo not shown) [Example 610b], for which, on human beta1-adrenoceptor, the “Beta 1 Log KD” value is listed as −6.78. The “Beta 2 Log KD” value at human beta2-adrenoceptor is listed as −4.79.
In turn, `O=C(NCCNCC(O)COc1ccc2oc(-c3ccccc3)cc(=O)c2c1)Nc1cccc(Cl)c1` (stereo not shown) [Example 4b, 1-(3-chlorophenyl)-3-(2-(2-hydroxy-3-(4-oxo-2-phenyl-4H-chromen-6-yloxy)propylamino)ethyl)urea] gave a melting point of 165 °C. Further, the Kd on human beta1-adrenoceptor is 617 nM. Besides, the Kd at human beta2-adrenoceptor is 4470 nM.
Regarding `Cc1cc(=O)oc2ccc(OCC(O)CNCCNC(=O)Nc3cccc(Cl)c3)cc12` (stereo not shown) [Example 4d, 1-(3-chlorophenyl)-3-(2-(2-hydroxy-3-(4-methyl-2-oxo-2H-chromen-6-yloxy)propylamino)ethyl)urea], the melting point was 158 °C. Also, the equilibrium dissociation constant (Kd) on human beta1-adrenoceptor was 389 nM. Further, the Kd on human beta2-adrenoceptor is 4470 nM.
With “1-(2-(2-Hydroxy-3-(2-methylbenzofuran-5-yloxy)propylamino)ethyl)-3-(4-hydroxyphenyl)urea [Example 610c]”, the “Beta 1 Log KD” value at human beta1-adrenoceptor was −6.55. At human beta2-adrenoceptor, the “Beta 2 Log KD” value is recorded as −5.16.
As for `CCOC(=O)c1cc2cc(OCC(O)CNCCNC(=O)Nc3cccc(Cl)c3)ccc2o1` (stereo not shown) [Example 24a, Ethyl-5-(3-(2-(3-(3-Chlorophenyl)ureido)ethylamino)-2-hydropropoxy)benzofuran-2-carboxylate], the “Beta 1 Log KD” value on human beta1-adrenoceptor is on record as −6.50. Moreover, the “Beta 2 Log KD” value at human beta2-adrenoceptor is −5.27.
Turning to `O=C(NCCNCC(O)C1Cc2cc(OCCOC3CCCC3)ccc2O1)Nc1ccc(O)cc1` (stereo not shown) [Example 63a, 1-(2-(2-(5-(2-(cyclopentyloxy)ethoxy)-2,3-dihydrobenzofuran-2-yl)-2-hydroxyethylamino)ethyl)-3-(4-hydroxyphenyl)urea], the dissociation constant Kd on human beta1-adrenoceptor is 537 nM; on human beta2-adrenoceptor, 26900 nM.
Take `CCOCc1cc2cc(OCC(O)CNCCNC(=O)Nc3ccc(O)cc3)ccc2o1` (stereo not shown) [Example 610a, 1-(2-(3-(2-(Ethoxymethyl)benzofuran-5-yloxy)-2-hydroxypropylamino)ethyl)-3-(4-hydroxyphenyl)urea]: the melting point worked out at 131.5 °C. On human beta1-adrenoceptor, the dissociation constant Kd was 257 nM. In addition, the dissociation constant Kd at human beta2-adrenoceptor was 10200 nM.
Compound `O=C(NCCNCC(O)C1COc2ccccc2O1)Nc1ccc(O)cc1` (mixture of isomers) [Example 46b, 1-(2-(2-(2,3-dihydrobenzo[b][1,4]dioxin-2-yl)-2-hydroxyethylamino)ethyl)-3-(4-hydroxyphenyl)urea] displayed a melting point of 141 °C. In addition, at human beta1-adrenoceptor, the Kd is 11 nM. Further, the Kd at human beta2-adrenoceptor was 97.7 nM.

For the origin of these results see patent US20150051270A1, “Novel Cyclic Phenoxy Compounds and Improved Treatments for Cardiac and Cardiovascular Disease” (University of Nottingham, priority 2012, published 2015).
